Experimental data as given in ChEMBL document CHEMBL4229387, “Recent progress of the development of dipeptidyl peptidase-4 inhibitors for the treatment of type 2 diabetes mellitus” (Eur J Med Chem, 2018).
Peptide text beside a SMILES is read from it.

Biological target: T1, Dipeptidyl peptidase 4 (Homo sapiens, UniProt P27487)
Assay: Inhibition of recombinant human DPP4 expressed in baculovirus expression system using Ala-Pro-AMC as substrate by fluorometric analysis
Settings: not given
Target sequence in this assay (P27487 whole entry): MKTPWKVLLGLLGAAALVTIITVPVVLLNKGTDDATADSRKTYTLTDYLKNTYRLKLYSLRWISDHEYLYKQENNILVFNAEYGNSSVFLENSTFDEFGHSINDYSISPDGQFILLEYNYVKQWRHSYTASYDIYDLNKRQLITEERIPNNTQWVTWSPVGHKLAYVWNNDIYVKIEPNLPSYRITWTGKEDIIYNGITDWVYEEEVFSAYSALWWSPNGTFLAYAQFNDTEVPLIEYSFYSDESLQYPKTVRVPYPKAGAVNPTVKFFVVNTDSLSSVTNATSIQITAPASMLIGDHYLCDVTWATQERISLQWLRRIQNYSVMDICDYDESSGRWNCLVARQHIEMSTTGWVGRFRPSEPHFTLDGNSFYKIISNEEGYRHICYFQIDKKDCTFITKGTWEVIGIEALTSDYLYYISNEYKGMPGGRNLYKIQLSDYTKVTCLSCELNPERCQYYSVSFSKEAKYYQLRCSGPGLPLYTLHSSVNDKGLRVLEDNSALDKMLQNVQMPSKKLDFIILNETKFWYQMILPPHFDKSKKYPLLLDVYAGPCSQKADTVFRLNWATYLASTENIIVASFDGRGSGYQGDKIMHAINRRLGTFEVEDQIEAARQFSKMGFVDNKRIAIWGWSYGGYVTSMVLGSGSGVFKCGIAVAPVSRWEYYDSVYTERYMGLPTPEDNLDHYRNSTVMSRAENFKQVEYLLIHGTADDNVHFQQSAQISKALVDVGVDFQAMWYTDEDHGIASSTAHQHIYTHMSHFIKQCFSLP

**Q.** For `COC(=O)c1cn([C@@H]2CN[C@H](C(=O)N3CCC(F)(F)C3)C2)nn1`, which IC50 is on record?
**A.** The IC50 was 720 nM.

**Q.** With `Cc1cc(-c2cn([C@@H]3CN[C@H](C(=O)N4CCC(F)(F)C4)C3)nn2)ccc1F` as the compound, how does the IC50 read?
**A.** The IC50 was 1320 nM.

**Q.** Which IC50 does the source give for `O=C([C@@H]1C[C@H](n2cc(-c3ccccc3)nn2)CN1)N1CCC(F)(F)C1` here?
**A.** The IC50 was 660 nM.

Biological target: T1, Dipeptidyl peptidase 4
Assay: Inhibition of recombinant human DPP4 using H-Gly-Pro-AMC as substrate after 30 mins by fluorometric analysis
Settings: not given
Target sequence in this assay (P27487 whole entry): as above

**Q.** For `O=C(CNC(=O)C1CCCN(S(=O)(=O)c2ccccc2)C1)Nc1ccc(Cl)cc1` (centres undefined), which IC50 is on record?
**A.** Its IC50 is 94.8 nM.

Biological target: T1, Dipeptidyl peptidase 4
Assay: Inhibition of recombinant human DPP4 using H-Gly-Pro-AMC as substrate preincubated for 15 mins followed by substrate addition measured for 20 mins with 1 min interval
Settings: not given
Target sequence in this assay (P27487 whole entry): as above

**Q.** Which IC50 does the source give for `O=C(N/N=C/c1cccc2ccccc12)c1[nH]nc2c1CCCC2` here?
**A.** The IC50 was 3440 nM.

**Q.** For `O=C(N/N=C/c1c(O)ccc2ccccc12)c1n[nH]c2c1CCCC2`, which IC50 is on record?
**A.** The IC50 was 2120 nM.

Biological target: T1, Dipeptidyl peptidase 4
Assay: Inhibition of DPP4 (unknown origin)
Settings: not given
Target sequence in this assay (P27487 whole entry, looked up): as the sequence (P27487 whole entry) above

**Q.** For `CC#CCn1c(N2CCC[C@@H](N)C2)cc(=O)n(Cc2cn(CCC(=O)OC)nn2)c1=O`, which IC50 is on record?
**A.** The IC50 was 64.3 nM.

Biological target: T1, Dipeptidyl peptidase 4
Assay: Inhibition of recombinant human DPP4 pre-incubated for 30 mins before Gly-Pro-Aminomethylcoumarin substrate addition
Settings: not given
Target sequence in this assay (P27487 whole entry): as above

**Q.** Which IC50 does the source give for `CC(C)=CCn1c(N2CCCC(N)C2)nc2c1c(=O)n(Cc1ccccc1C#N)c(=O)n2C` (centres undefined) here?
**A.** The IC50 was 19.6 nM.

Biological target: T1, Dipeptidyl peptidase 4
Assay: Inhibition of recombinant human DPP4 using Gly-Pro-AMC as substrate after 1 hr by fluorescence assay
Settings: not given
Target sequence in this assay (P27487 whole entry): as above

**Q.** For `N[C@@H](CCn1cc(-c2ccncc2)nn1)Cc1cc(F)c(F)cc1F`, which IC50 is on record?
**A.** Its IC50 is 14 nM.

Biological target: T1, Dipeptidyl peptidase 4
Assay: Inhibition of recombinant human DPP4 using Gly-Pro-AMC as substrate after 30 mins by fluorescence assay
Settings: not given
Target sequence in this assay (P27487 whole entry): as above

**Q.** Which IC50 does the source give for `Brc1nc2n(n1)CC(c1cc3ccccc3o1)=NN2` here?
**A.** Its IC50 is 28 µM.

Biological target: T1, Dipeptidyl peptidase 4
Assay: Inhibition of DPP4 (unknown origin) using Gly-Pro-AMC as substrate preincubated for 4 secs followed by substrate addition and measured after 30 mins by […] assay
Settings: not given

**Q.** For `O=c1c(O)c(-c2ccc(O)cc2)oc2cc(O)cc(O)c12` [KAEMPFEROL], which IC50 is on record?
**A.** The IC50 was 490 nM.

**Q.** With `C[C@@H]1O[C@@H](OC[C@H]2O[C@@H](Oc3cc(O)c4c(c3)O[C@H](c3ccc(O)c(O)c3)CC4=O)[C@H](O)[C@@H](O)[C@@H]2O)[C@H](O)[C@H](O)[C@H]1O` [ERIOCITRIN] as the compound, how does the IC50 read?
**A.** Its IC50 is 10400 nM.

**Q.** With `O=c1c(-c2ccc(O)cc2)coc2cc(O)cc(O)c12` [GENISTEIN] as the compound, how does the IC50 read?
**A.** The IC50 was 480 nM.

**Q.** With `O=C1C[C@@H](c2ccc(O)cc2)Oc2cc(O)cc(O)c21` [NARINGENIN] as the compound, how does the IC50 read?
**A.** The IC50 was 240 nM.

**Q.** Which IC50 does the source give for `O=C(O[C@@H]1Cc2c(O)cc(O)cc2O[C@@H]1c1cc(O)c(O)c(O)c1)c1cc(O)c(O)c(O)c1` [EPIGALOCATECHIN GALLATE] here?
**A.** The IC50 was 10200 nM.

**Q.** With `O=c1c(O)c(-c2ccc(O)c(O)c2)oc2cc(O)cc(O)c12` [QUERCETIN] as the compound, how does the IC50 read?
**A.** The IC50 was 2920 nM.

**Q.** For `OC[C@H]1O[C@@H](Oc2cc3c(O)cc(O)cc3[o+]c2-c2ccc(O)c(O)c2)[C@H](O)[C@@H](O)[C@@H]1O` [KUROMANIN], which IC50 is on record?
**A.** Its IC50 is 420 nM.

**Q.** For `O=C(O)/C=C/c1ccc(O)c(O)c1` [CAFFEIC ACID], which IC50 is on record?
**A.** The IC50 was 3370 nM.

**Q.** With `O=c1cc(-c2ccc(O)cc2)oc2cc(O)cc(O)c12` [APIGENIN] as the compound, how does the IC50 read?
**A.** Its IC50 is 140 nM.

**Q.** With `Oc1ccc(/C=C/c2cc(O)cc(O)c2)cc1` [RESVERATROL] as the compound, how does the IC50 read?
**A.** Its IC50 is 0.6 nM.

**Q.** Which IC50 does the source give for `COc1ccc([C@@H]2CC(=O)c3c(O)cc(O)cc3O2)cc1O` [HESPERETIN] here?
**A.** The IC50 was 280 nM.

**Q.** With `COc1cc(-c2[o+]c3cc(O)cc(O)c3cc2O)cc(OC)c1O` [MALVIDIN CHLORIDE] as the compound, how does the IC50 read?
**A.** Its IC50 is 1410 nM.

**Q.** Which IC50 does the source give for `Oc1cc(O)c2cc(O)c(-c3ccc(O)c(O)c3)[o+]c2c1` [CYANIDIN CHLORIDE] here?
**A.** Its IC50 is 1410 nM.

**Q.** Which IC50 does the source give for `O=c1cc(-c2ccccc2)oc2ccccc12` [FLAVONE] here?
**A.** The IC50 was 170 nM.

**Q.** Which IC50 does the source give for `O=C(O)c1cc(O)c(O)c(O)c1` [GALLIC ACID] here?
**A.** Its IC50 is 4650 nM.

**Q.** Which IC50 does the source give for `O=c1cc(-c2ccc(O)c(O)c2)oc2cc(O)cc(O)c12` [LUTEOLIN] here?
**A.** Its IC50 is 120 nM.

Biological target: T2, Dipeptidyl peptidase 4 (Sus scrofa, UniProt P22411)
T2 sequence (P22411 whole entry): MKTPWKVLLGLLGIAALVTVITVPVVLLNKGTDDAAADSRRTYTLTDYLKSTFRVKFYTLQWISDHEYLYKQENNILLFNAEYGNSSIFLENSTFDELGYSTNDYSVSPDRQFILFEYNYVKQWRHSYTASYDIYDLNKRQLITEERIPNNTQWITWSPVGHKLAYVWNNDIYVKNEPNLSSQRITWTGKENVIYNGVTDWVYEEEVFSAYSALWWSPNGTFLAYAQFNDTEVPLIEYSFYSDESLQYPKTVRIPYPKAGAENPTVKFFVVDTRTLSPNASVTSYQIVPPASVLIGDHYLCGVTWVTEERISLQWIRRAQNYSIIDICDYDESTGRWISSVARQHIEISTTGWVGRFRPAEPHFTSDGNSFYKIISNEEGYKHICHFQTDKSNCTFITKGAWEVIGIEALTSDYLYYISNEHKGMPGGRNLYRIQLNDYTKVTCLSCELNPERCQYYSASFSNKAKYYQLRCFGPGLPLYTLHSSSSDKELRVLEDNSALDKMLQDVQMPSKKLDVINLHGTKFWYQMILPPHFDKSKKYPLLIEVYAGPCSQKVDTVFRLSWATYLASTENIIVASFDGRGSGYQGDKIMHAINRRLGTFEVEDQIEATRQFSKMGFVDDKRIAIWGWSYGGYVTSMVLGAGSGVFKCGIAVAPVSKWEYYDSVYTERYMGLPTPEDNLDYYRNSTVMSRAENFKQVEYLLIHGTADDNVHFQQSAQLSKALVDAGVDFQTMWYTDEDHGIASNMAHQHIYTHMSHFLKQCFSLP
Assay: Inhibition of porcine DPP4 after 30 mins by luminescence assay
Settings: not given

**Q.** Which IC50 does the source give for `O=C1CC(c2ccc(O)cc2)Oc2cc(O)cc(O)c21` (centres undefined) here?
**A.** Its IC50 is 2500 nM.

**Q.** With `COc1cc2oc(-c3ccc(O)cc3)cc(=O)c2c(O)c1OC` [CIRSIMARITIN] as the compound, how does the IC50 read?
**A.** The IC50 was 430 nM.

**Q.** With `COc1c(O)cc2oc(-c3ccc(O)cc3)cc(=O)c2c1O` [HISPIDULIN] as the compound, how does the IC50 read?
**A.** The IC50 was 490 nM.

Biological target: T2, Dipeptidyl peptidase 4
Assay: Inhibition of porcine kidney DPP4
Settings: not given

**Q.** For `CC(C)C[C@H](NC(=O)[C@@H](N)CC(C)C)C(=O)N[C@@H](C)C(=O)N1CCC[C@H]1C(=O)O` (H-LLAP-OH), which IC50 is on record?
**A.** The IC50 was 43 to 159 µM.

**Q.** Which IC50 does the source give for `CC[C@H](C)[C@H](N)C(=O)N[C@@H](CC(C)C)C(=O)N[C@@H](C)C(=O)N1CCC[C@H]1C(=O)O` (H-ILAP-OH) here?
**A.** Its IC50 is 43 to 159 µM.

**Q.** With H-MAGVDHI-OH as the compound, how does the IC50 read?
**A.** Its IC50 is 43 to 159 µM.

Biological target: T1, Dipeptidyl peptidase 4
Assay: Inhibition of DPP4 (unknown origin) using Gly-Pro-pNA as substrate after 60 mins
Settings: not given

**Q.** For `CC(C)[C@H](N)C(=O)N[C@@H](Cc1c[nH]c2ccccc12)C(=O)O` [VALYLTRYPTOPHAN] (H-Val-Trp-OH), which IC50 is on record?
**A.** The IC50 was 65.7 µM.

System: not listed separately
Assay: Elimination half life in human
Settings: in vivo

**Q.** Which half-life does the source give for `Cn1c(=O)cc(N2CCC[C@@H](N)C2)n(Cc2ccccc2C#N)c1=O` [ALOGLIPTIN] here?
**A.** The half-life was 1270 min.

**Q.** With `N#C[C@@H]1C[C@@H]2C[C@@H]2N1C(=O)[C@@H](N)C12CC3CC(CC(C3)C1)C2` as the compound, how does the half-life read?
**A.** Its half-life is 120 to 240 min.

**Q.** With `O=C([C@@H]1C[C@H](N2CCN(c3ncccn3)CC2)CN1)N1CCC(F)(F)C1` [GOSOGLIPTIN] as the compound, how does the half-life read?
**A.** Its half-life is 3810 min.

**Q.** Which half-life does the source give for `Cc1cc2ncc(C(=O)NCC(C)(C)NCC(=O)N3CCC[C@H]3C#N)cn2n1` [ANAGLIPTIN] here?
**A.** The half-life was 348 to 372 min.

**Q.** For `N[C@@H](CC(=O)N1CCn2c(nnc2C(F)(F)F)C1)Cc1cc(F)c(F)cc1F` [SITAGLIPTIN], which half-life is on record?
**A.** The half-life was 480 to 1440 min.

**Q.** With `CC(C)(C)OC[C@@H]1C(=O)NCCN1C(=O)C[C@H](N)Cc1cc(F)c(F)cc1F` [EVOGLIPTIN] as the compound, how does the half-life read?
**A.** Its half-life is 1950 to 2390 min.

**Q.** With `Cc1cc(N2CCN([C@@H]3CN[C@H](C(=O)N4CCSC4)C3)CC2)n(-c2ccccc2)n1` [TENELIGLIPTIN] as the compound, how does the half-life read?
**A.** Its half-life is 1610 min.

**Q.** Which half-life does the source give for `CS(=O)(=O)n1cc2c(n1)CN([C@H]1CO[C@H](c3cc(F)ccc3F)[C@@H](N)C1)C2` [OMARIGLIPTIN] here?
**A.** The half-life was 660 to 1320 min.

**Q.** With `CC#CCn1c(N2CCC[C@@H](N)C2)nc2c1c(=O)n(Cc1nc(C)c3ccccc3n1)c(=O)n2C` [LINAGLIPTIN] as the compound, how does the half-life read?
**A.** The half-life was 600 to 2400 min.

**Q.** With `CC1(C)CCC(=O)N(C[C@@H](N)CC(=O)N2CCc3c(nc(C(F)(F)F)nc3C(F)(F)F)C2)C1` as the compound, how does the half-life read?
**A.** Its half-life is 1000 to 1280 min.

**Q.** For `Cn1c(=O)cc(N2CCC[C@@H](N)C2)n(Cc2cc(F)ccc2C#N)c1=O` [TRELAGLIPTIN], which half-life is on record?
**A.** Its half-life is 2310 to 3260 min.
